From patent publication US9527847B2, “Treatment of lupus, fibrotic conditions, and inflammatory myopathies and other disorders using PI3 kinase inhibitors” (INFINITY PHARMACEUTICALS, INC., priority 2012, dated 2016)
Values joined by “and” are separate entries in the source; they are usually repeats but may differ in a detail not shown here. Equal entries are not always repeated. “Also recorded” adds a separate entry of the source.

Columns and labels:
B cell proliferation = B cell proliferation EC50 (Table 3); type: cell-based; conditions: in vitro
PI3K-δ = PI3K-δ (Homo sapiens, UniProt O00329); experiment: One exemplary assay, PI3K-δ activity; type: biochemical; conditions: overall, several assays
PI3K-δ, sequence (O00329 whole entry, species assumed): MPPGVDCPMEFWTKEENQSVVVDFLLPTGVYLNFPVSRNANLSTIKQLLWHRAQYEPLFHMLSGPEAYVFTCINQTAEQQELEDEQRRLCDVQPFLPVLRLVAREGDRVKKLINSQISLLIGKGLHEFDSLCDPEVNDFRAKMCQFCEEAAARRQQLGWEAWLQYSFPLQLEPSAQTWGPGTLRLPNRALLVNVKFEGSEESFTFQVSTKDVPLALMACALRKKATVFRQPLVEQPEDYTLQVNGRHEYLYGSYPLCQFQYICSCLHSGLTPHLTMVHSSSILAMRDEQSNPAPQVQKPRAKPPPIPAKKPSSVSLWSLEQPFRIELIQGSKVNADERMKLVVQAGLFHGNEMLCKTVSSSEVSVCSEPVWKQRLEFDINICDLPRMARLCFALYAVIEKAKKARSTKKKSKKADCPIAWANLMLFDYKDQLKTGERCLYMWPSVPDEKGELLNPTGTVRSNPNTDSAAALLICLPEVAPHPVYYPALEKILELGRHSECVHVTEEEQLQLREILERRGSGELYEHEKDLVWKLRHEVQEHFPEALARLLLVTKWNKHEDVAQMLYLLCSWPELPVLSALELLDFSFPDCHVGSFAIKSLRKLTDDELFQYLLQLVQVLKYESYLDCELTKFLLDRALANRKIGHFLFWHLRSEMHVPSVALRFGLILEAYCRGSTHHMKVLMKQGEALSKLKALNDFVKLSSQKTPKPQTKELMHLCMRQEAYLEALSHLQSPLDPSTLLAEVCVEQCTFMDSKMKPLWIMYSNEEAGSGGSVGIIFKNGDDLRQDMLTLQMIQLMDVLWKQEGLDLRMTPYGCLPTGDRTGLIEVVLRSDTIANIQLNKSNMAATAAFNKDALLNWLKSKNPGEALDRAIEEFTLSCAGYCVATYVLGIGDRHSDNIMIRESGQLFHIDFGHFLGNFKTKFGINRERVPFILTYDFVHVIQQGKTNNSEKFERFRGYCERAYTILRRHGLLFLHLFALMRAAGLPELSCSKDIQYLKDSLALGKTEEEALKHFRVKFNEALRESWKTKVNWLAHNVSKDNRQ
PI3K-δ, sequence (P27986 whole entry partner, species assumed): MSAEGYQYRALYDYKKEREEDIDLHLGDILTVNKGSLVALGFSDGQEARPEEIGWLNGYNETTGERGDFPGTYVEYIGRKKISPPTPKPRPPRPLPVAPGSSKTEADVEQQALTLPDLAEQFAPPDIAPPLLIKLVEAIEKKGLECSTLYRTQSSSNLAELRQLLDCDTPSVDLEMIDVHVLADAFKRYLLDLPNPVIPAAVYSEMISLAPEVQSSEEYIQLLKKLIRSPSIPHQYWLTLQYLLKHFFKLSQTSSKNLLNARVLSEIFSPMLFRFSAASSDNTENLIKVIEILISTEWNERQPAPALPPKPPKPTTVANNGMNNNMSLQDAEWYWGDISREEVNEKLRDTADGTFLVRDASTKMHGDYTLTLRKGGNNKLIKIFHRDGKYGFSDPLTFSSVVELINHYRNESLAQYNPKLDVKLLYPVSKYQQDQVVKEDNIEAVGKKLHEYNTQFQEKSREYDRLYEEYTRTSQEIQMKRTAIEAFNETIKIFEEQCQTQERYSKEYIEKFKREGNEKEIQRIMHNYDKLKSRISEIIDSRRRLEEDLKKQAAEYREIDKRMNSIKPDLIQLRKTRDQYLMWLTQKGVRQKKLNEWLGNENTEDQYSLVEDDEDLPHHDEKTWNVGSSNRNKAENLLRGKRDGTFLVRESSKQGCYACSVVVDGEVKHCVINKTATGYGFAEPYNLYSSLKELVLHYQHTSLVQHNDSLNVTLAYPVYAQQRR

[1] = tested on: Murine B-cell proliferation; experiment: Murine B-cell proliferation; type: cell-based; conditions: Mus musculus
[2] = tested on: Human B-cell proliferation; experiment: Human B-cell proliferation; type: cell-based
[3] = tested on: Human T-cell proliferation; experiment: Human T-cell proliferation; type: cell-based
[4] = tested on: PI3K-δ specific basophil activation; experiment: Anti-fCER1 BAT (delta), basophil activation in human whole blood; type: cell-based; conditions: Table 5
[5] = tested on: TLR9 (CPG-A induced cytokines); experiment: CPG-A induced cytokine production in PBMCs; type: cell-based, human
Experimental: Human PBMCs were stimulated with CPG-A. CPG-A selectively activates PDCs, inducing IFN-α production via TLR9. IFN-α is a PDC cell selective readout. Primary human PBMCs from two normal human donors were used as a source of PDC cells. 200 K cells per well were used. […] Then the cells were treated with the specified concentration of CPG-A for 16 hours. RPMI-5% serum was employed.
(§1) These experiments were conducted using PBMCs.

[6] = tested on: TL2/TLR6 (PAM2CSK4 induced cytokines); experiment: PAM2CSK4 induced cytokine production in PBMCs; type: cell-based, human
Experimental: as §1

R848 induced cytokines = experiment: R848 induced cytokine production in PBMCs; type: cell-based, human
Experimental: as §1

LPS induced cytokines = experiment: LPS induced cytokine production in PBMCs; type: cell-based, human
Experimental: as §1

mouse EAE model = experiment: Experimental Autoimmune Encephalomyelitis (EAE) model, semi-therapeutic, 28 day; type: in vivo; conditions: for End % body weight +/− SD: Day 27 relative to Day −1; for End score +/− SD: Day 28; for Mean day of EAE onset: after immunization, mice which developed EAE; for Inflammatory foci +/− SD: per spinal cord section; for Demyelination (LFB) +/− SD: score per section
Experimental: EAE was induced in 60 mice using Hooke Kit™ MOG35-55/CFA Emulsion PTX (Hooke Laboratories, Lawrence Mass.), catalog number EK-0110, lot number 0104, per manufacturer's recommended protocol, except that pertussis toxin was diluted with phosphate buffered saline to achieve 1.4× and 1.3× solution (starting from the 1.5× solution in the kit). This was done to optimize disease severity for this particular study.
Mice were injected subcutaneously, at two sites in the back, with the emulsion component of the kit (containing MOG35-55). One site of injection was in the area of the upper back, approximately 1 cm caudal of the neck line. The second site was in the area of the lower back, approximately 2 cm cranial of the base of the tail. Injection volume was 0.1 mL at each site. Within 2 hours of the injection of emulsion, and then again 24 hours after the injection of emulsion, the pertussis toxin component of the kit was administered intraperitoneally. Volume of each injection was 0.1 mL.
Vehicle for Group 2 (FTY720) was water and 2% ethanol. Vehicle for all other groups was water, 0.5% CMC (low viscosity), and 0.05% Tween80. Mice were dosed at the same time every day, +/−1 hour. The last day of dosing was Day 27 after immunization.
Readouts were EAE scores and changes in body weight. Mice were scored daily from Day 7 to Day 28, and body weights were measured three times/week (Monday, Wednesday and Friday), starting on Day −1.
EAE was scored on scale 0 to 5: • 0 No obvious changes in motor functions of the mouse in comparison to non-immunized mice. When picked up by the tail, the tail has tension and is erect. Hind legs are usually spread apart. When the mouse is walking, there is no gait or head tilting. • 1 Limp tail. When the mouse is picked up by the tail, instead of being erect, the whole tail drapes over finger. • 2 Limp tail and weakness of hind legs. When mouse is picked up by tail, legs are not spread apart, but held closer together. When the mouse is observed walking, it has a clearly apparent wobbly walk. • 3 Limp tail and complete paralysis of hind legs (most common); or limp tail with paralysis of one front and one hind leg; or all of: severe head tilting, walking only along the edges of the cage, pushing against the cage wall, and spinning when picked up by the tail. • 4 Limp tail, complete hind leg and partial front leg paralysis. Mouse is minimally moving around the cage but appears alert and feeding Usually, euthanasia is recommended after the mouse scores level 4 for 2 days. When the mouse is euthanized because of severe paralysis, score of 5 is entered for that mouse for the rest of the experiment. • 5 Complete hind and complete front leg paralysis, no movement around the cage; or mouse is spontaneously rolling in the cage; or mouse is found dead due to paralysis.
At the end of the study 3 luxol fast blue (LFB) stained sections and 3 H&E sections, from lumbar, thoracic, and cervical spinal cord of all mice in Groups 1, 2, 3, and 6 and the 3 naïve mice were prepared and analyzed.
Inflammatory foci were counted in each H&E stained section. Each group of approximately 20 cells was counted as one focus. Foci larger than 20 cells were counted based on an estimate of how many foci of 20 cells were present.
The demyelination score represents an estimate of demyelinated area for each section as follows. For LFB stained slides, the demyelinated area was estimated based on intensity of blue staining of myelin. For H&E stained sections, demyelinated area was estimated by looking for interruption of normal structure—pallor and vacuolation consistent with edema and demyelination, and dilated axons. • 0—no demyelination (less than 5% demyelinated area) • 1—5 to 20% demyelinated area • 2—20 to 40% demyelinated area • 3—40 to 60% demyelinated area • 4—60 to 80% demyelinated area • 5—80 to 100% demyelinated area.
The number of apoptotic cells in each of the three H&E sections was determined.

`C[C@H](Nc1ncnc2[nH]cnc12)c1cc2cccc(Cl)c2c(=O)n1-c1ccccc1` [Compound 292] was tested, and the EC50 (B cell proliferation) was < 100 nM, the “PI3K-δ inhibited at lower dose compared to PI3K-γ, PI3K-β or PI3K-α” value (PI3K-δ) was “at least 10 fold” and the EC50 [1] was 0.5 nM. The EC50 [2] was 0.5 nM, the EC50 [3] was 9.5 nM and the EC50 [4] was 78 nM. The “CPG-A induced IFN-α production” value [5] was “potently inhibited; also recorded: blocked”, the “CPG-A induced IL-6 production” value [5] was “Inhibited” and the “CPG-A induced IL-8 production” value [5] was “Inhibited”. For the same compound, the “CPG-A induced TNF-α production” value [5] was “Inhibited”, the “PAM2CSK4 induced IL-1 production” value [6] was “Inhibited” and the “PAM2CSK4 induced IL-6 production” value [6] was “Inhibited”. The “PAM2CSK4 induced IL-8 production” value [6] was “Inhibited”, the “PAM2CSK4 induced TNF-α production” value [6] was “Inhibited” and the “R848 induced IFN-α” value (R848 induced cytokines) was “did not detectably affect”. For the same compound, the “R848 induced IL-1” value (R848 induced cytokines) was “slightly inhibited”, the “R848 induced IL-6” value (R848 induced cytokines) was “did not detectably affect” and the “R848 induced IL-8” value (R848 induced cytokines) was “did not detectably affect”. For the same compound, the “R848 induced TNF-α” value (R848 induced cytokines) was “did not detectably affect”, the “LPS induced IL-1 production” value (LPS induced cytokines) was “enhanced” and the “LPS induced IL-6 production” value (LPS induced cytokines) was “enhanced”. The “LPS induced IL-8 production” value (LPS induced cytokines) was “did not detectably affect”, the “LPS induced TNF-α production” value (LPS induced cytokines) was “enhanced” and the “Apoptotic cells, average per section+/−SD” value (mouse EAE model; 0.3 mg/kg QD p.o.) was 1.7+/−0.9. The “Demyelination score (H&E sections), average per section+/−SD” value (mouse EAE model; 0.3 mg/kg QD p.o.) was 1.5+/−0.5, the “MMS +/− SD” value (mouse EAE model; 0.3 mg/kg QD p.o.) was 2.50+/−0.85 and the “Median Day of Onset” value (mouse EAE model; 0.3 mg/kg QD p.o.) was 11.5 days. For the same compound, the “End % body weight +/− SD” value (mouse EAE model; 0.3 mg/kg QD p.o.) was 96.1+/−11.8%, the “End score +/− SD” value (mouse EAE model; 0.3 mg/kg QD p.o.) was 1.60+/−1.02 and the “Mean day of EAE onset” value (mouse EAE model; 0.3 mg/kg QD p.o.) was 11.3 ± 0.4 days. For the same compound, the “Inflammatory foci +/− SD” value (mouse EAE model; 0.3 mg/kg QD p.o.) was 2.9+/−1.5, the “Demyelination (LFB) +/− SD” value (mouse EAE model; 0.3 mg/kg QD p.o.) was 1.2+/−0.7 and the “MMS +/− SD” value (mouse EAE model; 1 mg/kg QD p.o.) was 2.70+/−0.72. For the same compound, the “Median Day of Onset” value (mouse EAE model; 1 mg/kg QD p.o.) was 11 days and 11.0 days, the “End % body weight +/− SD” value (mouse EAE model; 1 mg/kg QD p.o.) was 99.0+/−7.4% and the “End score +/− SD” value (mouse EAE model; 1 mg/kg QD p.o.) was 1.40+/−0.81. For the same compound, the “Mean day of EAE onset” value (mouse EAE model; 1 mg/kg QD p.o.) was 12.5 ± 1.0 days, the “MMS +/− SD” value (mouse EAE model; 3 mg/kg QD p.o.) was 3.40+/−0.21 and the “Median Day of Onset” value (mouse EAE model; 3 mg/kg QD p.o.) was 12 days and 12.0 days. For the same compound, the “End % body weight +/− SD” value (mouse EAE model; 3 mg/kg QD p.o.) was 87.7+/−6.4%, the “End score +/− SD” value (mouse EAE model; 3 mg/kg QD p.o.) was 2.65+/−0.67 and the “Mean day of EAE onset” value (mouse EAE model; 3 mg/kg QD p.o.) was 12.1 ± 0.7 days. For the same compound, the “Apoptotic cells, average per section+/−SD” value (mouse EAE model; 10 mg/kg QD p.o.) was 2.2+/−1.0, the “Demyelination score (H&E sections), average per section+/−SD” value (mouse EAE model; 10 mg/kg QD p.o.) was 1.9+/−0.8 and the “MMS +/− SD” value (mouse EAE model; 10 mg/kg QD p.o.) was 2.55+/−0.76. The “Median Day of Onset” value (mouse EAE model; 10 mg/kg QD p.o.) was 14 days and 14.0 days, the “End % body weight +/− SD” value (mouse EAE model; 10 mg/kg QD p.o.) was 95.6+/−8.5% and the “End score +/− SD” value (mouse EAE model; 10 mg/kg QD p.o.) was 1.65+/−0.85. For the same compound, the “Mean day of EAE onset” value (mouse EAE model; 10 mg/kg QD p.o.) was 14.4 ± 1.5 days, the “Inflammatory foci +/− SD” value (mouse EAE model; 10 mg/kg QD p.o.) was 5.2+/−3.2 and the “Demyelination (LFB) +/− SD” value (mouse EAE model; 10 mg/kg QD p.o.) was 1.6+/−0.8.
